Test results taken from paper PMC13338763, “Harnessing albumin as a carrier for the delivery of anti-HIV drugs to the lymphatic system” (Acta biomaterialia, 2025).

Legend:
[1] = target: BSA (Bos taurus, UniProt P02769); assay: Gel retardation study with BSA; format: binding, bovine; conditions: BSA, weight ratio
Experimental: (§1) Twenty (20) μg EB, hEB, hEB-platin, or hEB-DTG were mixed with or without various amounts of BSA, globulin, fibrinogen or FBS in 200 μL saline water, then 40 μL of the mixed solution were loaded to 1.5 % agarose gel and run under 120 V for 30 min.

[2] = test system: globulin; assay: Gel retardation study with globulin; format: binding
Experimental: as §1

[3] = target: T1, fibrinogen (Homo sapiens, UniProt P02671+P02675+P02679); assay: Gel retardation study with fibrinogen; format: binding
T1 sequence (P02671 20-629 limits assumed): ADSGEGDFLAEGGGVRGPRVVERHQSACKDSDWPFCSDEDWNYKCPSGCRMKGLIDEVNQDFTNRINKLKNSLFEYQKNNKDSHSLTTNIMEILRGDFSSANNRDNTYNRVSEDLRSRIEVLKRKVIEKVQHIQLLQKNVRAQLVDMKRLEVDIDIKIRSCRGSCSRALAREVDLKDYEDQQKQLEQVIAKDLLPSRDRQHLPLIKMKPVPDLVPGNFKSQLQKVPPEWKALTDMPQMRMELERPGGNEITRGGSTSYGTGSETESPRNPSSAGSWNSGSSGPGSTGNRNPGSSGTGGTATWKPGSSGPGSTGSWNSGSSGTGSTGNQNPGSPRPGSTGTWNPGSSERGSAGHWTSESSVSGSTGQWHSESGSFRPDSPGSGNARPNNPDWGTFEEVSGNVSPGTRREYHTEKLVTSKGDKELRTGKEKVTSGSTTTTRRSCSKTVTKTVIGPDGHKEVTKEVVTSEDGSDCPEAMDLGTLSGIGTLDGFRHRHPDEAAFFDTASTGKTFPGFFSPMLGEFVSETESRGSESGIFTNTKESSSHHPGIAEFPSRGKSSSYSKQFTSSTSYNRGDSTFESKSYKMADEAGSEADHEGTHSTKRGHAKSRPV
T1 sequence (P02675 31-491): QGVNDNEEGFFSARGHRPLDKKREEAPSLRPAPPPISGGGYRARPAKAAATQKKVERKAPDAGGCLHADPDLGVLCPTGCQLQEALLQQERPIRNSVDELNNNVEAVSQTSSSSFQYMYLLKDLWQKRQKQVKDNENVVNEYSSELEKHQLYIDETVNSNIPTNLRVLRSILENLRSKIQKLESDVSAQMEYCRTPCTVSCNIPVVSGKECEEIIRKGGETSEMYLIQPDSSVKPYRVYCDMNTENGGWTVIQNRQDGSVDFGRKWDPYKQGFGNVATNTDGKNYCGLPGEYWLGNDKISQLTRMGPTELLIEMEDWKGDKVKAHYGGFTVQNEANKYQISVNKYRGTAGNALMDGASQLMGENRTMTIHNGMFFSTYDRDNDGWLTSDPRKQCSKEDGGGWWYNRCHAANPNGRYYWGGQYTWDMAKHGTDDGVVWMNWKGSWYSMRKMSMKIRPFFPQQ
T1 sequence (P02679 27-453): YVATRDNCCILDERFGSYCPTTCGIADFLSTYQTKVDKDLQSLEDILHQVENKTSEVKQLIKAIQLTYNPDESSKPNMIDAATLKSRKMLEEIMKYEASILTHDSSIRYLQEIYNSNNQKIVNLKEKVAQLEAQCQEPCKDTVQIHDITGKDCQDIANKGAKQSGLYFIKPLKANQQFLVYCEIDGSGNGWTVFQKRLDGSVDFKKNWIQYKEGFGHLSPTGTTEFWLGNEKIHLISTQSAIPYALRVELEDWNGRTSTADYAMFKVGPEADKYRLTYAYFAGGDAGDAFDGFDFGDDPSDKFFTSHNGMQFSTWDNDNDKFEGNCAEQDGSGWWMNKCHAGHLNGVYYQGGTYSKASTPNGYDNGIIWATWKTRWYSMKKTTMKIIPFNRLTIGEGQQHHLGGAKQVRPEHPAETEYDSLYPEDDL
Experimental: as §1

[4] = test system: HUVEC monolayer; assay: Transwell study: transport across a HUVEC monolayer, flow cytometry of HEK293T cells in lower chamber; format: cell-based; conditions: 8 h; for EB transport across a HUVEC monolayer: EB-positive cells in the lower chamber: Fig. 1J
Experimental: HEK293T were seeded to 6-well plates as lower chamber and HUVEC were seeded to Corning (NY, USA) 6-well plate inserts (0.4 μm pore size) in another plate as upper chamber, respectively. After incubation and the cell layer on the upper chamber became intact, the culture medium in the inserts was replaced by fresh medium containing 0, 5 or 20 μg/mL filipin and 0 or 10 μg/mL LPS for overnight incubation. Next, the culture medium in the inserts was replaced with fresh medium containing 10 μM EB, hEB or hEB-DTG and 2 mg/mL BSA, then the inserts were moved to the wells cultured with HEK293T cells for incubation of 8 h at 37 °C. After that, HEK293T cells in the lower chambers were washed with cold PBS.
EB signals in HEK293T cells were quantified by flow cytometry. Fluorescence was examined at an excitation wavelength of 532 nm and an emission wavelength of 660 nm. 10 × 10^4 events were collected for each sample.

[5] = test system: HEK293T cells; assay: Cellular uptake study in vitro (flow cytometry); format: cell-based; conditions: in words
Experimental: HEK293T or HUVEC cells were seeded to 6-well plates. After overnight incubation, the culture medium was replaced by fresh medium containing 10 μM EB and 2, 5, or 20 mg/mL BSA for incubation of 0.5, 1 or 3 h at 37 °C. Later, cells were washed with cold PBS and fixed with PBS containing 4 % (w/v) formaldehyde.
Cellular uptake of different treatments was quantified by flow cytometry. Fluorescence was examined at an excitation wavelength of 532 nm and an emission wavelength of 660 nm. 10 × 10^4 events were collected for each sample.

[6] = Distribution in LN tissue and cells in LNs after i.v. injection (fluorescence microscopy, flow cytometry); format: in vivo
Experimental: Five (5) μM/kg EB, hEB or hEB-DTG were i.v. injected into mice pretreated intraperitoneally with or without 2.5 mg/kg LPS for 24 h. After 24 h, LNs from different sites were collected and their signals of EB were checked under fluorescent microscopy. To evaluate the EB signals in various types of cells, LNs were disrupted mechanically using scissors, digested with a mixture of deoxyribonuclease I (0.3 mg/mL, Sigma-Aldrich) and TL Liberase (0.25 mg/mL, Roche, IN, USA) in serum-free RPMI-1640 at 37 °C for 30 min, and dispersed through a 40 μm cell strainer (BD Biosciences, CA, USA). After red blood cell lysis, live/dead cell discrimination was performed using a Zombie NIR Fixable Viability Kit (BioLegend, CA, USA, dilution: 1/1000) at 4 °C for 30 min in DPBS. Surface staining was performed at 4 °C for 30 min in FACS staining buffer (1 × phosphate-buffered saline/5 % FBS/0.5 % sodium azide) containing designated antibody cocktails (PerCP anti-mouse CD45 antibody, Brilliant Violet 785 anti-mouse CD4 antibody, FITC anti-mouse CD8 antibody, APC anti-mouse CD11b antibody, APC/Cyanine7 anti-mouse F4/80 antibody, Pacific Blue anti-mouse CD19 antibody and AF647 anti-mouse CD27 antibody; dilution: 1/200 for all antibodies). Flow cytometry was performed with LSRII (BD Biosciences) and Aurora (Cytek Biosciences, CA, USA) instruments and analyzed by FlowJo (BD Biosciences). The EB signals in each type of cell were quantified as mentioned above.

[7] = test system: albumin; set-up: method as in PMID 27682195; conditions: cited from earlier work

Chain of BSA (P02769 25-607): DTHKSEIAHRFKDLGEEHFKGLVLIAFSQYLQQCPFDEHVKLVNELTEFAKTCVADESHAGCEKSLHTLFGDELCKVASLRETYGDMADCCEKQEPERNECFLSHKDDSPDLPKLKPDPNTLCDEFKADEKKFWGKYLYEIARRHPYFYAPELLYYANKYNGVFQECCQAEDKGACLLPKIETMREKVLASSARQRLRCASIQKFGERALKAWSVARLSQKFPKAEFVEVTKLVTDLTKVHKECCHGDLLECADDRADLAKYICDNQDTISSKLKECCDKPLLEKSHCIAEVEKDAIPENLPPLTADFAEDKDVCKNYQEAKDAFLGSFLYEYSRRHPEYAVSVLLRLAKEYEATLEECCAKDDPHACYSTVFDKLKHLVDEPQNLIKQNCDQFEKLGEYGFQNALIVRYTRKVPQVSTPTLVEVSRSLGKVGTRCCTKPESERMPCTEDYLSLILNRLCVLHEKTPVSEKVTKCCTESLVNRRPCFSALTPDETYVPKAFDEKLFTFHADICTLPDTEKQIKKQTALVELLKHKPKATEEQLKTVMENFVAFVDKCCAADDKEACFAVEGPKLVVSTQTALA

## Cc1cc(-c2ccc(/N=N/c3ccc4c(S(=O)(=O)O)cc(S(=O)(=O)O)c(N)c4c3O)c(C)c2)ccc1/N=N/c1ccc2c(S(=O)(=O)O)cc(S(=O)(=O)O)c(N)c2c1O [EB, Evans Blue]
[1]
  albumin/EB weight ratio at which the majority of EB molecules were bound to albumin: ≥ 25
[2]
  binding to globulin: no detectable binding
[3]
  binding to fibrinogen: no detectable binding
[4]; CT (no pretreatment)
  EB transport across a HUVEC monolayer: EB-positive cells in the lower chamber: 98.8%
[4]; HUVEC pretreated with LPS + filipin
  EB transport across a HUVEC monolayer: EB-positive cells in the lower chamber: 9.66%
[4]; HUVEC pretreated with LPS
  EB transport across a HUVEC monolayer: EB-positive cells in the lower chamber: 98.7%
[4]; HUVEC pretreated with filipin
  EB transport across a HUVEC monolayer: EB-positive cells in the lower chamber: 5.04%
[4]; albumin-bound, in words
  transport across endothelial cell monolayer: strong fluorescent signals were detected in the lower chamber
[5]
  cellular uptake: efficient and albumin-dependent
[6]; 24 h post i.v. injection, in words
  fluorescence signal in LNs: Robust EB fluorescence was detected in all LNs examined
[6]; 24 h post-injection, LPS 2.5 mg/kg i.p.
  EB signals in LNs of LPS-treated vs naive mice: not significantly different
[6]; flow cytometry, in words
  uptake by immune cell populations in LNs: significant EB signal across multiple cell populations
[7]
  EB molecules bound per albumin molecule: up to 14
